In US20250170080A1, “COMPOSITIONS COMPRISING BUTYRIC ACID AND GLUCONIC ACID FOR THE TREATMENT OF DISORDERS AND SYNDROMES ASSOCIATED WITH INTESTINAL BARRIER DYSFUNCTIONS AND DYSBIOSIS” (DIFASS INTERNATIONAL S.P.A., priority 2022, published 2025):

What was measured:
IL-6 = IL-6 release (ELISA) in reconstructed 3D human intestinal epithelium stressed with LPS+TNF-alpha; settings: for effect on release of IL-6 (in words): LPS+TNF-alpha stressed tissue, vs positive control, t-test; for IL-6 Anti-inflammatory activity: compared with CTR+ (LPS+TNF-alpha), * = p<0.05 vs positive control; for IL-6 Anti-inflammatory activity / IL-6 % var. vs CTR −: reference dose; for IL-6 % var. vs CTR −: variation vs untreated tissues (CTR−), LPS+TNF-alpha stressed
Description: (§1) Assays of pro-inflammatory cytokines TNF-alpha and IL-6 were evaluated. The biological model used in the assay is a model of human intestinal epithelium reconstructed in vitro in 3D, consisting of intestinal epithelial and endothelial cells and fibroblasts of human origin. The highly differentiated tissue model is produced at the air-liquid interface in easily manageable culture tissue inserts using a serum-free medium. […] The cells used to produce the tissue model were screened for potential biological contaminants, using specific tests and analyses to guarantee the functionality and quality of the tissues.
(§2) The intestinal epithelium tissues reconstructed in vitro were exposed for 24 hours to the stressor lipopolysaccharide of bacterial origin (LPS) in combination with cytokine TNF-alpha, and simultaneously treated for a further 24 hours with each experimental condition examined. After the 48-hour experimental session, the culture media were harvested to assay pro-inflammatory cytokines TNF-alpha and IL-6.
(§3) Each ingredient and the mixture selected for the treatments were diluted in H2O, taking account of the average intestinal volume of 80 ml. In particular, the following reference doses were used: • calcium butyrate 500 mg; • gluconic acid 29.87 mg; • gluconic acid+calcium butyrate=29.87 mg+500 mg.
(§4) 50 μl of each sample was tested in the tissue model, simulating the following experimental conditions: • reference dose; The experimental protocol involved: • untreated tissues (CTR−); • tissues exposed to pro-inflammatory agents LPS+TNF-alpha (CTR+); • tissues exposed to pro-inflammatory agents LPS+TNF-alpha and treated with butyrate (calcium butyrate); • tissues exposed to pro-inflammatory agents LPS+TNF-alpha and treated with gluconic acid; • tissues exposed to pro-inflammatory agents LPS+TNF-alpha and treated with gluconic acid+butyrate (calcium butyrate) mixture; • Each test was conducted in duplicate. To monitor the ability of the tested ingredients to inhibit the inflammatory response in vitro in a system wherein an inflammatory condition has been induced, the production of pro-inflammatory cytokine TNF-alpha and interleukin 6 (IL-6) was evaluated. At the end of the treatments the culture media were harvested for the TNF-alpha and IL-6 assay using an ELISA kit. The data obtained were subjected to statistical analysis and compared using the t-test. The variations compared with the positive control are deemed significant for p<0.05 and indicated by “*”.
(§5) The results are expressed as mean values ±standard deviation (expressed in pg/ml), as % variation compared with CTR− and as anti-inflammatory activity compared with CTR+.

TNF-alpha = TNF-alpha release (ELISA) in reconstructed 3D human intestinal epithelium stressed with LPS+TNF-alpha; settings: for effect on release of TNF-alpha (in words): LPS+TNF-alpha stressed tissue, vs positive control, t-test; for TNF-alpha Anti-inflammatory activity: compared with CTR+ (LPS+TNF-alpha), * = p<0.05 vs positive control; for TNF-alpha Anti-inflammatory activity / TNF-alpha % var. vs CTR −: reference dose; for TNF-alpha % var. vs CTR −: variation vs untreated tissues (CTR−), LPS+TNF-alpha stressed
Description: as §1, §2, §3, §4, §5

[1] = oral intake; avoids digestion and absorption in the small intestine; cited from earlier work

Compound | effect on release of IL-6 (in words) (IL-6) | IL-6 Anti-inflammatory activity (IL-6) [%*] | IL-6 % var. vs CTR − (IL-6) [%] | effect on release of TNF-alpha (in words) (TNF-alpha) | TNF-alpha Anti-inflammatory activity (TNF-alpha) [%*] | TNF-alpha % var. vs CTR − (TNF-alpha) [%] | gluconic acid introduced with the diet or diet supplements that reaches the large intestine [1]
CCCC(=O)O [Butyrate, calcium butyrate] | significantly reduce release of the pro-inflammatory cytokine | 23.8 | 61.5 | significantly reduce the release of the pro-inflammatory cytokine | 28.8 | 40.5 | –
O=C(O)[C@H](O)[C@@H](O)[C@H](O)[C@H](O)CO [Gluconic acid, gluconic acid] | significantly reduce release of the pro-inflammatory cytokine | 24.3 | 60.5 | significantly reduce the release of the pro-inflammatory cytokine | 30.3 | 37.6 | over 70%
